Assay results published in US7371412B2, “Pharmaceutical compositions comprising an extract of Euphorbia prostrata” (priority 2004, dated 2008).

What was measured:
[1] = tested on: carrageenan-induced hemorrhoids; assay: Antihaemorrhoidal activity, anorectum:body weight ratio model; format: in vivo; settings: rats, p.o.; for effect against carrageenan-induced hemorrhoids: chronic administration (7 days)
Method: The antihaemorrhoidal activity of the Euphorbia prostrata extract was assessed and compared with reference drug, diosmin using anorectum:body weight ratio model in rats (modified method of Jia et al., 2000).
FIG. 1: Effect of Euphorbia prostrata extract (E.p. extract) against carrageenan-induced hemorrhoids in rats.
FIG. 2: Effect of individual component of Euphorbia prostrata extract (E.p. extract) against carrageenan-induced hemorrhoids in rats.

[2] = tested on: acetic acid-induced chemonociception; assay: Acetic acid-induced writhing; format: in vivo; settings: mice; for antinociceptive effect in the writhing test: p.o.
[3] = tested on: oedematous response to croton oil; settings: Della Loggia et al., 1986; cited from earlier work
COX-2 = settings: lipopolysaccharide activated RAW 264.7 macrophages (Liang et al., 1999); cited from earlier work
[4] = tested on: iNOS (inducible nitric oxide synthase); settings: lipopolysaccharide activated RAW 264.7 macrophages (Liang et al., 1999); cited from earlier work
rat liver microsomes = settings: CCl4 induced peroxidation; rat liver microsomes (Cholbi et al., 1991); cited from earlier work
histamine release = settings: in vivo (Bhargava and Westfall, 1969); cited from earlier work
murine macrophages = murine macrophages (Xagorari et al., 2001); cited from earlier work
[5] = tested on: carrageenan-induced hyperalgesia; assay: Carrageenan-induced hyperalgesia, paw pressure test; format: in vivo; settings: rats; 2 mg/kg
Description: FIG. 7: Effect of Euphorbia prostrata extract (E.p. extract) against carageenan-induced hyperalgesia in rats.

[6] = In vitro superoxide radical scavenging activity; format: biochemical; settings: 25 μg
Description: FIG. 9: In vitro superoxide radical scavenging activity of Euphorbia prostrata extract (E.p. extract).

In the case of `O=c1cc(-c2ccc(O)cc2)oc2cc(O[C@@H]3O[C@H](CO)[C@@H](O)[C@H](O)[C@H]3O)cc(O)c12` [apigenin-7-glucoside], the “effect against carrageenan-induced hemorrhoids” value ([1]; 0.478 mg/kg) is given as “showed effect”, the “antinociceptive effect in the writhing test” value ([2]; 0.5, 1.0, and 2.0 mg/kg) is given as “dose-dependent antinociceptive effect” and the “oedematous response to croton oil” value [3] is given as “dose dependent inhibition”.

For `O=c1cc(-c2ccc(O)cc2)oc2cc(O)cc(O)c12` [apigenin], the “inhibition of transcriptional activation of COX-2” value (COX-2) is given as “most potent inhibitor”, the “inhibition of transcriptional activation of iNOS” value [4] is given as “most potent inhibitor” and the antiperoxidative activity (rat liver microsomes) is given as “significant antiperoxidative activity”.

With `COc1ccc(-c2cc(=O)c3c(O)cc(O[C@@H]4O[C@H](CO[C@@H]5O[C@@H](C)[C@H](O)[C@@H](O)[C@H]5O)[C@@H](O)[C@H](O)[C@H]4O)cc3o2)cc1O` [diosmin, reference compound] the “anorectal body weight ratio” value ([1]; 50 mg/kg, 7 days) was “significantly decreased” and the “histopathological examination of the anorectum” value ([1]; 50 mg/kg, 7 days) was “intact mucosal layer with prominent mucosal cells and mild leukocyte migration”.

In the case of `O=c1oc2c(O)c(O)cc3c(=O)oc4c(O)c(O)cc1c4c23` [ellagic acid], the “effect against carrageenan-induced hemorrhoids” value ([1]; 1.204 mg/kg) is given as “showed effect” and the “histamine release mediated by histamine liberators (compound 48/80, dextran and polymyxin B sulfate)” value (histamine release) is given as “suppress histamine release”.

For `O=C(O)c1cc(O)c(O)c(O)c1` [gallic acid], the “effect against carrageenan-induced hemorrhoids” value ([1]; 1.123 mg/kg) was “showed effect”.

In the case of `O=c1cc(-c2ccc(O)c(O)c2)oc2cc(O[C@@H]3O[C@H](CO)[C@H](O)[C@H](O)[C@H]3O)cc(O)c12` [luteolin-7-galactoside], the “oedematous response to croton oil” value [3] is listed as “dose dependent inhibition”.

For `O=c1cc(-c2ccc(O)c(O)c2)oc2cc(O[C@@H]3O[C@H](CO)[C@@H](O)[C@H](O)[C@H]3O)cc(O)c12` [luteolin-7-glucoside], the “antinociceptive effect in the writhing test” value ([2]; 0.25, 0.5, and 1.0 mg/kg) was “dose-dependent antinociceptive effect”.

For `O=c1cc(-c2ccc(O)c(O)c2)oc2cc(O)cc(O)c12` [luteolin], the antiperoxidative activity (rat liver microsomes) is given as “significant antiperoxidative activity” and the “protein tyrosin phosphorylation, nuclear factor-κB mediated gene expression and pro-inflammatory cytokine production” value (murine macrophages) is given as “inhibits”.

With `CS(=O)(=O)Nc1ccc([N+](=O)[O-])cc1Oc1ccccc1` [nimesulide, reference compound] the pain threshold ([2]; 2 mg/kg) was “significantly increased” and the paw withdrawal latencies [5] was “increased”.

With tocopherol the “superoxide radical scavenging activity” value [6] was 25.54%.
